Test results from patent US20070021501A1, “Methods of treating epileptogenesis” (priority 2005, published 2007).

Key:
[1] = tested on: lithium-pilocarpine model of temporal lobe epilepsy in the rat; assay: Latency to and frequency of spontaneous seizures, video recording (Example 2); type: in vivo, Sprague-Dawley rats
Method: The effects of DZP and the 4 doses of TC on epileptogenesis were investigated by daily video recording of the animals for 10 h per day. Video recording was performed for 4 weeks during which the occurrence of the first seizure was noted as well as the total number of seizures over the whole period. Animals were then taken off the video recording system and kept for 4 additional weeks in our animal facilities before they were sacrificed after a total period of 8 weeks of epilepsy.

[2] = tested on: lithium-pilocarpine model of temporal lobe epilepsy in the rat; assay: Quantification of cell densities in hippocampus, thalamus and cortex after Li-pilo SE (Example 1); type: in vivo; details: for more damage (worsening of cell loss) compared with pilo-DZP rats: TC 10 mg/kg
Method: Quantification of cell densities was performed at 6 days after SE on 8 pilo-DZP, 8 pilo-TC10, 7 pilo-TC30, 7 pilo-TC60, and 6 saline-saline rats.
Cell counts were performed twice in a blind manner and were the average of at least 3 values from 2 adjacent sections in each individual animal. Counts involved only cells larger than 10 μm, smaller ones being considered as glial cells.
For the comparison of the characteristics of SE in pilo-saline and pilo-test compound animals, a non-paired Student's t-test was used. The comparison between the number of rats seizing in both groups was performed by means of a Chi square test. For neuronal damage, statistical analysis between groups was performed using ANOVA followed by a Fisher's test for multiple comparisons using the Statview software (Fisher R A, 1946a, Statistical Methods for Research Workers (10th edition) Oliver & Boyd, Edinburgh; Fisher R A, 1946b, The Design of Experiments (4th edition) Oliver & Boyd, Edinburgh) Behavioral and EEG Characteristics of Lithium-pilocarpine Status Epilepticus

[3] = tested on: lithium-pilocarpine status epilepticus in the rat; assay: Mortality induced by SE, lithium-pilocarpine model (Example 1); type: in vivo
Text: The model induced in rats by pilocarpine associated with lithium (Li-Pilo) reproduces most of the clinical and neurophysiological features of human temporal lobe epilepsy (Turski et al., 1989, Synapse 3:154-171; Cavalheiro, 1995, Ital J Neurol Sci 16:33-37). In adult rats, the systemic administration of pilocarpine leads to status epilepticus (SE). The lethality rate reaches 30-50% during the first days. In the surviving animals, neuronal damage predominates within the hippocampal formation, the piriform and entorhinal cortices, thalamus, amygdaloid complex, neocortex and substantia nigra.
(§1) Male Wistar rats weighing 225-250 g, provided by Janvier Breeding Center (Le Genest-St-lste, France) were housed under controlled standard conditions (light/dark cycle, 7.00 a.m.-7.00 p.m. lights on), with food and water available ad libitum. All animal experimentation was performed in accordance with the rules of the European Communities Council Directive of Nov. 24, 1986 (86/609/EEC), and the French Department of Agriculture (License N^o 67-97). For electrode implantation, rats were anesthetized by an i.p. injection of 2.5 mg/kg diazepam (DZP, Valium, Roche, France) and […] ketamine chlorhydrate (Imalgene 1000, Rhone Merrieux, France). Four single-contact recording electrodes were placed on the skull, over the parietal cortex, two on each side.
(§2) The bilateral EEG cortical activity was recorded during the whole duration of SE and behavioral changes were noted.
The effects of increasing doses of the test compound were studied on 3 groups of rats. The animals of the first group received 10 mg/kg of the test compound, i.p., 1 h after the onset of SE (pilo-TC10) while the animals of groups 2 and 3 received 30 and 60 mg/kg of the test compound (pilo-TC30 and pilo-TC60), respectively.
The control group received saline instead of pilocarpine and the test compound (saline-saline). […] Pilo-DZP received a second injection of 1 mg/kg DZP on the day of SE at about 10 h after the first one. Thereafter, Pilo-DZP and saline-saline rats received twice daily an equivalent volume of saline.

[4] = tested on: lithium-pilocarpine model of temporal lobe epilepsy in the rat; assay: Quantification of cell densities (neuronal counting) 14 days after Li-pilo SE (Example 2); details: 14 days after SE; for cell loss: hippocampus CA1 pyramidal cell layer
Method: All rats received lithium chloride (3 meq/kg, i.p., Sigma, St Louis, Mo., U.S.A.) and about 20 h later, all animals received also methylscopolamine bromide (1 mg/kg, s.c., Sigma) that was administered to limit the peripheral effects of the convulsant. […] The effects of increasing doses of TC were studied in 5 groups of rats. […] The control group received vehicle instead of pilocarpine and TC.
For neuronal counting, animals were deeply anesthetized with 1.8 g/kg pentobarbital (Dolethal®, Vétoquinol, Lure, France). Brains were then removed and frozen. Serial 20 μm slices were cut in a cryostat, air-dried during several days before thionine staining. […] The grid of counting was placed on a well defined area of the cerebral structure of interest and counting was carried out with a microscopic enlargement of 200- or 400-fold defined for each single cerebral structure. Cell counts were performed twice on each side of three adjacent sections for each region by a single observer unaware of the animal's treatment. The number of cells obtained in the 12 counted fields in each cerebral structure was averaged. This procedure was used to minimize the potential errors that could result from double counting leading to overestimation of cell numbers. […] Counts involved only neurons with cell bodies larger than 10 μm. Cells with small cell bodies were considered as glial cells and were not counted.
For neuronal damage and epileptogenesis, statistical analysis between groups was performed by means of a one-way analysis of variance followed by a post-hoc Dunnett or Fisher test using the Statistica software.

[5] = tested on: lithium-pilocarpine status epilepticus in the rat; assay: EEG patterns during and after Li-pilo SE (Example 1); type: in vivo
Method: as §1, §2
The effects of the test compound on the EEG and on the latency to occurrence of SRS were investigated by daily video recording of the animals for 10 h per day and the recording of the electrographic activity twice a week for 8 h.

[6] = tested on: lithium-pilocarpine status epilepticus in the rat; assay: Mortality over the first 48 h after Li-pilo SE (Example 2); type: in vivo, Sprague-Dawley rats
Method: Adult male Sprague-Dawley rats provided by Janvier Breeding Center (Le Genest-St-lsle, France) were housed under controlled, uncrowded standard conditions at 20-22° C. (light/dark cycle, 7.00 a.m.-7.00 p.m. lights on), with food and water available ad libitum. All animal experimentation was performed in accordance with the rules of the European Communities Council Directive of Nov. 24, 1986 (86/609/EEC), and the French Department of Agriculture (License N^o 67-97).

## NC(=O)OC[C@@H](O)c1ccccc1Cl [TC]
[1]; TC 30 mg/kg
  frequency of spontaneous seizures over the four weeks of recording: tendency to be higher
[1]; TC 90 mg/kg (4/11)
  percentage of rats with short latencies to seizures (shorter than 40 days after SE): 36%
[1]; TC 120 mg/kg
  percentage of non-epileptic rats (no seizure over 150 days post-SE): 45%
[1]; TC 120 mg/kg (1/9)
  percentage of rats with short latencies to seizures (shorter than 40 days after SE): 11%
[1]; TC60, 90 and 120 groups
  frequency of spontaneous seizures over the four weeks of recording: lower
[2]; dorsal entorhinal cortex layers III-IV
  more damage (worsening of cell loss) compared with pilo-DZP rats: 28%
[2]; ventral entorhinal cortex layers III-IV
  more damage (worsening of cell loss) compared with pilo-DZP rats: 35%
[2]; TC 30 mg/kg, hippocampus CA1 pyramidal layer
  cell loss: 35%
[2]; TC 60 mg/kg, hippocampus CA1 pyramidal layer
  cell loss: 16%
[2]; TC 60 mg/kg, piriform cortex layer II
  reduction of neuronal damage recorded in the pilo-DZP rats: 41%
[2]; TC 60 mg/kg, piriform cortex layers III-IV
  reduction of neuronal damage recorded in the pilo-DZP rats: 44%
[2]; TC 60 mg/kg, ventral entorhinal cortex layers III-IV
  neuroprotection compared to pilo-DZP rats: 31%
[2]; pilo-test compound animals (range over doses), hilus of dentate gyrus
  cell loss: 69-72%
[2]; test compound 60 mg/kg, CA3b
  protection compared to pilo-DZP rats: significantly neuroprotective
[2]; test compound, CA3a area
  protection compared to pilo-DZP rats: did not afford any protection
[3]; TC 10 mg/kg i.p. 1 h after onset of SE (6/23)
  mortality during the first 48 h after SE: 26%
[3]; TC 30 mg/kg i.p. 1 h after onset of SE (5/25)
  mortality during the first 48 h after SE: 20%
[3]; TC 60 mg/kg i.p. 1 h after onset of SE (1/23), p<0.01
  mortality during the first 48 h after SE: 4%
[4]; TC 120 mg/kg, all parts of the entorhinal cortex (range)
  neurons surviving: 85-94%
[4]; TC 120 mg/kg, hilus of dentate gyrus
  neuronal loss: 53%
[4]; TC 120 mg/kg
  cell loss: 12%
[4]; TC 120 mg/kg, thalamic nuclei (range)
  neuronal drop out: 4-19%
[4]; TC30, 60 and 90 groups (range printed together with DZP group), hilus of dentate gyrus
  cell loss (drop out): 61-66%
[4]; TC30, 60 or 90 rats (range over groups)
  cell loss: 36-47%
[5]; TC 10 mg/kg, between 1 and 8 h after injection
  EEG after injection at 24 and 48 h after SE (silent period): no change
[5]; TC 10 mg/kg, cortex and hippocampus
  EEG by 6-7 h of SE: spiking activity was still present in the cortex and the hippocampus
[5]; TC 30 mg/kg, hippocampus
  amplitude of the EEG by 6-7 h of SE: came back to baseline levels
[5]; TC 60 mg/kg, hippocampus and cortex
  amplitude of the EEG by 6-7 h of SE: came back to baseline levels
[5]; TC 30 and 60 mg/kg, as soon as 10 min after injection
  EEG after injection at 24 and 48 h after SE (silent period): frequency and amplitude of PEDs decreased
[6]; TC 30 mg/kg, group devoted to cell counting at 14 days (4/12)
  mortality over the first 48 h after SE: 33%
[6]; TC 30 mg/kg, group devoted to latency to SRS and late cell counting (3/11)
  mortality over the first 48 h after SE: 27%
[6]; TC 60 mg/kg, group devoted to cell counting at 14 days (1/12)
  mortality over the first 48 h after SE: 8%
[6]; TC 60 mg/kg, group devoted to latency to SRS and late cell counting (0/10)
  mortality over the first 48 h after SE: 0%
[6]; TC 90 mg/kg, group devoted to cell counting at 14 days (0/10)
  mortality over the first 48 h after SE: 0%
[6]; TC 90 mg/kg, group devoted to latency to SRS and late cell counting (0/11)
  mortality over the first 48 h after SE: 0%
[6]; TC 120 mg/kg, group devoted to cell counting at 14 days (4/12)
  mortality over the first 48 h after SE: 33%
[6]; TC 120 mg/kg, group devoted to latency to SRS and late cell counting (0/9)
  mortality over the first 48 h after SE: 0%
